# Results as given in PubChem BioAssay AID330 (DTP/NCI, 2004).
# Where “and” joins values, the source holds several entries; their conditions need not be identical. Identical values can stand only once. Toxic doses and inconclusive results are not listed.
# System: P388 leukemia ip, CD2F1 mice, survival T/C
# Assay: NCI In Vivo Anticancer Drug Screen. Data for tumor model P388 Leukemia (intraperitoneal) in CD2F1 (CDF1) mice
# Conditions: endpoint: median survival time, higher = longer survival
# Summary of the method: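 Mice carrying the transplanted tumor received test compound or vehicle. Survival was recorded in each group, and the value is the treated-group measurement divided by that of the vehicle-treated control group.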
# [1] = dose: 60.0 mg/kg/injection, schedule: Q01DX005 (ip), vehicle: saline with Tween-80
# [2] = dose: 120.0 mg/kg/injection, schedule: Q01DX005 (ip), vehicle: saline with Tween-80
# [3] = dose: 240.0 mg/kg/injection, schedule: Q01DX005 (ip), vehicle: saline with Tween-80
# [4] = dose: 50.0 mg/kg/injection, schedule: Q01DX005 (ip), vehicle: Klucel (hydroxypropylcellulose) (HPC)
# [5] = dose: 100.0 mg/kg/injection, schedule: Q01DX005 (ip), vehicle: Klucel (hydroxypropylcellulose) (HPC)
# [6] = dose: 200.0 mg/kg/injection, schedule: Q01DX005 (ip), vehicle: Klucel (hydroxypropylcellulose) (HPC)
structure (smiles),measurement,setting,value
Nc1nc(=S)c2[nH]cnc2[nH]1,T/C,"dose: 0.25 mg/kg/injection, schedule: Q01DX009 (ip), vehicle: acid diluted with saline",114 % of control
same,T/C,"dose: 0.25 mg/kg/injection, schedule: Q01DX009 (ip), vehicle: alkali diluted with saline",120 % of control
same,T/C,"dose: 0.38 mg/kg/injection, schedule: Q01DX005 (ip), vehicle: alkali diluted with saline",108 % of control
same,T/C,"dose: 0.5 mg/kg/injection, schedule: Q01DX009 (ip), vehicle: acid diluted with saline",106 % of control
same,T/C,"dose: 0.5 mg/kg/injection, schedule: Q01DX009 (ip), vehicle: alkali diluted with saline",119 % of control
same,T/C,"dose: 0.75 mg/kg/injection, schedule: Q01DX005 (ip), vehicle: alkali diluted with saline",115 % of control
same,T/C,"dose: 1.0 mg/kg/injection, schedule: Q01DX009 (ip), vehicle: acid diluted with saline",112 % of control
same,T/C,"dose: 1.12 mg/kg/injection, schedule: Q04DX003 (ip), vehicle: acid diluted with saline",109 % of control
same,T/C,"dose: 1.44 mg/kg/injection, schedule: Q01DX009 (ip), vehicle: acid diluted with saline",155 % of control
same,T/C,"dose: 1.5 mg/kg/injection, schedule: Q01DX005 (ip), vehicle: alkali diluted with saline",123 % of control
same,T/C,"dose: 1.5 mg/kg/injection, schedule: Q01DX009 (ip), vehicle: acid diluted with saline",154 % of control
same,T/C,"dose: 1.5 mg/kg/injection, schedule: Q01DX009 (ip), vehicle: alkali diluted with saline",151 % of control
same,T/C,"dose: 2.0 mg/kg/injection, schedule: Q01DX005 (ip), vehicle: alkali diluted with saline",157 % of control
same,T/C,"dose: 2.0 mg/kg/injection, schedule: Q01DX009 (ip), vehicle: acid diluted with saline",106 % of control
same,T/C,"dose: 2.0 mg/kg/injection, schedule: Q04DX003 (ip), vehicle: alkali diluted with saline",119 % of control
same,T/C,"dose: 2.25 mg/kg/injection, schedule: Q04DX003 (ip), vehicle: acid diluted with saline",119 % of control
same,T/C,"dose: 2.4 mg/kg/injection, schedule: Q01DX009 (ip), vehicle: acid diluted with saline",154 % of control and 170 % of control
same,T/C,"dose: 2.5 mg/kg/injection, schedule: Q04DX003 (ip), vehicle: alkali diluted with saline",116 % of control
same,T/C,"dose: 3.24 mg/kg/injection, schedule: Q04DX003 (ip), vehicle: acid diluted with saline",117 % of control
same,T/C,"dose: 4.5 mg/kg/injection, schedule: Q01DX009 (ip), vehicle: saline",122 % of control
same,T/C,"dose: 4.5 mg/kg/injection, schedule: Q04DX003 (ip), vehicle: acid diluted with saline",119 % of control
same,T/C,"dose: 5.0 mg/kg/injection, schedule: Q04DX003 (ip), vehicle: alkali diluted with saline",108 % of control
same,T/C,"dose: 6.0 mg/kg/injection, schedule: Q01DX005 (ip), vehicle: alkali diluted with saline",116 % of control
same,T/C,"dose: 6.0 mg/kg/injection, schedule: Q01DX009 (ip), vehicle: acid diluted with saline",105 % of control
same,T/C,"dose: 12.0 mg/kg/injection, schedule: Q01DX005 (ip), vehicle: alkali diluted with saline",113 % of control
same,T/C,"dose: 20.0 mg/kg/injection, schedule: Q04DX003 (ip), vehicle: alkali diluted with saline",120 % of control
CCN([NH-])C(=S)[S-].CCN([NH-])C(=S)[S-].[Ni],T/C,"dose: 6.25 mg/kg/injection, schedule: Q04DX003 (ip), vehicle: Klucel (hydroxypropylcellulose) (HPC)",99 % of control
same,T/C,"dose: 12.5 mg/kg/injection, schedule: Q04DX003 (ip), vehicle: Klucel (hydroxypropylcellulose) (HPC)",107 % of control
same,T/C,"dose: 25.0 mg/kg/injection, schedule: Q04DX003 (ip), vehicle: Klucel (hydroxypropylcellulose) (HPC)",103 % of control
CS(=O)(=O)C(c1nc2nnc(NC(=O)Nc3ccc(Cl)cc3)n2[nH]c1=O)c1nc2nnc(NC(=O)Nc3ccc(Cl)cc3)n2[nH]c1=O,T/C,[1],104 % of control
same,T/C,[2],100 % of control
same,T/C,[3],98 % of control
O=C1CC(c2ccccc2)NCCC2CN(CCCN1)C(=O)c1ccccc12 (stereo not given),T/C,"dose: 16.25 mg/kg/injection, schedule: Q01DX005 (ip), vehicle: Klucel (hydroxypropylcellulose) (HPC)",100 % of control
same,T/C,"dose: 32.5 mg/kg/injection, schedule: Q01DX005 (ip), vehicle: Klucel (hydroxypropylcellulose) (HPC)",100 % of control
same,T/C,"dose: 65.0 mg/kg/injection, schedule: Q01DX005 (ip), vehicle: Klucel (hydroxypropylcellulose) (HPC)",100 % of control
same,T/C,"dose: 130.0 mg/kg/injection, schedule: Q01DX005 (ip), vehicle: Klucel (hydroxypropylcellulose) (HPC)",100 % of control
CCSc1nc(Cl)cc(Sc2nc(N)nc3nc[nH]c23)n1,T/C,"dose: 12.0 mg/kg/injection, schedule: Q01DX009 (ip), vehicle: saline with Tween-80",90 % of control
same,T/C,"dose: 18.0 mg/kg/injection, schedule: Q01DX009 (ip), vehicle: saline with Tween-80",90 % of control
same,T/C,"dose: 26.0 mg/kg/injection, schedule: Q01DX009 (ip), vehicle: saline with Tween-80",100 % of control
same,T/C,"dose: 40.0 mg/kg/injection, schedule: Q01DX009 (ip), vehicle: saline with Tween-80",104 % of control
same,T/C,"dose: 60.0 mg/kg/injection, schedule: Q01DX009 (ip), vehicle: saline with Tween-80",100 % of control
same,T/C,"dose: 88.0 mg/kg/injection, schedule: Q01DX009 (ip), vehicle: saline with Tween-80",90 % of control
same,T/C,"dose: 132.0 mg/kg/injection, schedule: Q01DX009 (ip), vehicle: saline with Tween-80",86 % of control
CC1=C(C)C(=O)OC1,T/C,"dose: 60.0 mg/kg/injection, schedule: Q01DX005 (ip), vehicle: saline",108 % of control
same,T/C,"dose: 120.0 mg/kg/injection, schedule: Q01DX005 (ip), vehicle: saline",107 % of control
same,T/C,"dose: 240.0 mg/kg/injection, schedule: Q01DX005 (ip), vehicle: saline",101 % of control
COc1ccc(NC(=O)CCC(=O)CC(=O)c2ccncc2)cc1,T/C,[1],101 % of control
same,T/C,[2],103 % of control
same,T/C,[3],93 % of control
O=C(Nc1cccc(Cl)c1)ON1C(=O)C2C(C1=O)C1(Cl)C(Cl)C(Cl)C2(Cl)C1(Cl)Cl (stereo not given),T/C,"dose: 50.0 mg/kg/injection, schedule: Q01DX009 (ip), vehicle: saline with Tween-80",103 % of control and 110 % of control
same,T/C,"dose: 100.0 mg/kg/injection, schedule: Q01DX009 (ip), vehicle: saline with Tween-80",110 % of control and 112 % of control and 120 % of control
same,T/C,"dose: 200.0 mg/kg/injection, schedule: Q01DX009 (ip), vehicle: saline with Tween-80",106 % of control and 124 % of control
same,T/C,"dose: 400.0 mg/kg/injection, schedule: Q01DX009 (ip), vehicle: saline with Tween-80",108 % of control and 110 % of control
CCN(CC)CCNc1ccc([N+](=O)[O-])c2sc3cc(Cl)ccc3c(=O)c12,T/C,"dose: 50.0 mg/kg/injection, schedule: Q01DX005 (ip), vehicle: saline with Tween-80",100 % of control
same,T/C,"dose: 100.0 mg/kg/injection, schedule: Q01DX005 (ip), vehicle: saline with Tween-80",104 % of control
same,T/C,"dose: 200.0 mg/kg/injection, schedule: Q01DX005 (ip), vehicle: saline with Tween-80",102 % of control
CC(C)(C)c1cc2c(O)c(c1)Cc1cc(C(C)(C)C)cc(c1O)Cc1cc(C(C)(C)C)cc(c1O)Cc1cc(C(C)(C)C)cc(c1O)Cc1cc(C(C)(C)C)cc(c1O)Cc1cc(C(C)(C)C)cc(c1O)Cc1cc(C(C)(C)C)cc(c1O)Cc1cc(C(C)(C)C)cc(c1O)C2,T/C,[4],101 % of control
same,T/C,[5],90 % of control
same,T/C,[6],99 % of control
C=C1C(=O)OC2CC1C(O)C/C(C)=C/CC/C(C)=C/CCC2(C)O (stereo not given),T/C,"dose: 2.0 mg/kg/injection, schedule: Q01DX009 (ip), vehicle: Klucel (hydroxypropylcellulose) (HPC)",110 % of control
same,T/C,"dose: 4.0 mg/kg/injection, schedule: Q01DX009 (ip), vehicle: Klucel (hydroxypropylcellulose) (HPC)",110 % of control
same,T/C,"dose: 8.0 mg/kg/injection, schedule: Q01DX009 (ip), vehicle: Klucel (hydroxypropylcellulose) (HPC)",122 % of control and 92 % of control
same,T/C,"dose: 16.0 mg/kg/injection, schedule: Q01DX009 (ip), vehicle: Klucel (hydroxypropylcellulose) (HPC)",105 % of control and 114 % of control
same,T/C,"dose: 32.0 mg/kg/injection, schedule: Q01DX009 (ip), vehicle: Klucel (hydroxypropylcellulose) (HPC)",106 % of control and 107 % of control
CC(C)(C)NC1/C(=C\c2ccccc2)C(=O)c2ccccc2C1(C)C (stereo not given),T/C,"dose: 25.0 mg/kg/injection, schedule: Q01DX009 (ip), vehicle: other",109 % of control
same,T/C,"dose: 50.0 mg/kg/injection, schedule: Q01DX009 (ip), vehicle: other",101 % of control
same,T/C,"dose: 100.0 mg/kg/injection, schedule: Q01DX009 (ip), vehicle: other",110 % of control
same,T/C,"dose: 200.0 mg/kg/injection, schedule: Q01DX009 (ip), vehicle: other",124 % of control
CN(C)CCOC(=O)Nc1ccccc1C(F)(F)F,T/C,[1],99 % of control
same,T/C,[2],95 % of control
CC1(C)CC(Nc2ccccc2)=CC(Nc2ccccc2)=N1,T/C,[4],105 % of control
same,T/C,[5],98 % of control
same,T/C,[6],105 % of control
CC(/C=C/c1ccc2c(c1)OCO2)=N\NC(N)=S,T/C,"dose: 3.13 mg/kg/injection, schedule: Q01DX005 (ip), vehicle: saline with Tween-80",104 % of control
same,T/C,"dose: 6.25 mg/kg/injection, schedule: Q01DX005 (ip), vehicle: saline with Tween-80",112 % of control
